Several values for one entry are separate records, joined by “and”; a condition that tells them apart may be missing. Equal values may be shown once.
Biological target: FFA1 (Homo sapiens, UniProt O14842)
Test: Ca2+ mobilisation (Fura2) in Flp-In T-REx 293 cells expressing Nluc-FFA1, FFA1-Nluc or untagged FFA1
Assay type: cell-based
Set-up: expressed in transfected cells
Conditions: for Ca2+ Response as a % of T360 Response: single technical replicates; for pEC50: Ca2+ data, mean±SEM; for pEC50 / EMax: NR = No response; for EMax: percentage of response to 10 μM T360
Procedure: Nluc-FFA1, FFA1-Nluc or untagged FFA1 Flp-In T-REx 293 cells were plated at 50,000 cells per well in poly-D-lysine coated black clear bottom 96-well plates. Cells were then cultured for 24 h until reaching confluency before culture medium was replaced with medium containing 100 ng/mL of doxycycline to induce receptor expression. Cells were cultured for a further 24 h before the assay. On the day of the assay culture medium was removed and replaced with medium containing 3 μM Fura2-AM Ca^2+ dye. […] Fura2 fluorescent emission at 520 nm following excitation with each of 340 and 380 nm was measured in regular intervals both before and after adding test compounds for a total of 90 s per well. Calcium responses were determined by taking the peak 340/380 ratio after first subtracting the ratios obtained prior to addition of test compound.

FFA1, sequence (O14842 whole entry): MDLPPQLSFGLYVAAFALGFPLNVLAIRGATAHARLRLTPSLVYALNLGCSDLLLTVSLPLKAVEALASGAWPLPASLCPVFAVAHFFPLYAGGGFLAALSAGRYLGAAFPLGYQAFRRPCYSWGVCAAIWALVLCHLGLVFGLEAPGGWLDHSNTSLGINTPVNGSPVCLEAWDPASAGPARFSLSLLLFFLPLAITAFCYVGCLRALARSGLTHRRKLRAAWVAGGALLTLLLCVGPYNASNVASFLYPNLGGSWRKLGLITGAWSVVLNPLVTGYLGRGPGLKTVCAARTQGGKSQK

Row | activity in Ca2+ assays (in words) | pEC50 | EMax | SMILES | Ca2+ Response as a % of T360 Response (log[Ligand] -5) | Ca2+ Response as a % of T360 Response (log[Ligand] -5.5) | Ca2+ Response as a % of T360 Response (log[Ligand] -6) | Ca2+ Response as a % of T360 Response (log[Ligand] -6.5) | Ca2+ Response as a % of T360 Response (log[Ligand] -7) | Ca2+ Response as a % of T360 Response (log[Ligand] -8) | Ca2+ Response as a % of T360 Response (log[Ligand] -9)
1 | – | 6.20±0.14 | 112±10% | COc1ccc(C(=O)N2CCC(CCNC(=O)OC(C)(C)C)CC2)c(N2CCC(COc3cccc(C(CC(=O)O)C4CC4)c3)CC2)c1.O=C(O)C(F)(F)F (centres unmarked) [TUG-2451] | – | – | – | – | – | – | –
2 | – | 6.18±0.09 | 108±7% | COc1ccc(C(=O)N2CCC(CNC(=O)OC(C)(C)C)CC2)c(N2CCC(COc3cccc(C(CC(=O)O)C4CC4)c3)CC2)c1.O=C(O)C(F)(F)F (centres unmarked) [TUG-2450] | – | – | – | – | – | – | –

Continued, compound first:

Row | SMILES | activity in Ca2+ assays (in words) | pEC50 | EMax | Ca2+ Response as a % of T360 Response (log[Ligand] -5) | Ca2+ Response as a % of T360 Response (log[Ligand] -5.5) | Ca2+ Response as a % of T360 Response (log[Ligand] -6) | Ca2+ Response as a % of T360 Response (log[Ligand] -6.5) | Ca2+ Response as a % of T360 Response (log[Ligand] -7) | Ca2+ Response as a % of T360 Response (log[Ligand] -8) | Ca2+ Response as a % of T360 Response (log[Ligand] -9)
3 | COc1ccc(C(=O)N(CC(C)(C)C)c2cccc(C)n2)c(N2CCC(COc3cccc(C(CC(=O)NCCCNc4ccc([N+](=O)[O-])c5nonc45)C4CC4)c3)CC2)c1.O=C(O)C(F)(F)F (centres unmarked) [TUG-2598] | loss of activity | – | – | 7.1012% and 15.2717% and 1.6246% and 2.7551% and 3.0159% and 6.2735% and 0.8241% and 1.6284% and -0.5359% | 1.5741% and 1.0900% and 0.3918% and 0.5253% and 0.2798% and 0.0720% and 0.3603% and 1.4514% and 1.2937% | 0.7619% and 0.7231% and 2.0549% and 2.7546% and 3.4553% and 0.9789% and -0.3872% and -0.5141% and 0.0396% | 0.0902% and 2.5170% and 0.7188% and 6.6987% and 2.2005% and 0.1478% and -0.6706% and 0.0668% and 0.2619% | 0.1653% and 1.3781% and 1.4889% and 2.9024% and 3.7196% and 2.7339% and -0.5451% and -0.2430% and 0.9384% | 0.4880% and 2.3639% and 0.4031% and 3.7453% and 1.7322% and 2.3495% and 0.5137% and 0.8889% and 1.3866% | 4.5581% and 0.9272% and 0.1871% and 0.2081% and 3.1188% and 3.6549% and 0.3770% and -0.1948% and -0.1822%
4 | COc1ccc(C(=O)N2CCN(CCNC(=O)OC(C)(C)C)CC2)c(N2CCC(COc3cccc(C(CC(=O)O)C4CC4)c3)CC2)c1.Cl (centres unmarked) [TUG-2458] | – | 5.38±0.09 | 133±5% | – | – | – | – | – | – | –
5 | COc1ccc(C(=O)N(CC(C)(C)CNc2ccc([N+](=O)[O-])c3nonc23)c2ccccc2)c(N2CCC(COc3cccc(C(CC(=O)O)C4CC4)c3)CC2)c1.O=C(O)C(F)(F)F (centres unmarked) [TUG-2490] | – | 5.95±0.16 | – | – | 93.1455% and 77.9850% and 75.8107% and 96.4232% and 72.2793% and 68.6021% | 53.6775% and 46.6859% and 50.0991% and 72.4727% and 32.6717% and 50.6607% | 16.7030% and 15.2768% and 30.6910% and 52.9860% and 26.5604% and 17.0828% | -0.5150% and -0.6020% and 9.0880% and 4.0961% and 1.0500% and 13.2109% | -0.3253% and 0.1971% and 2.2527% and 3.6975% and -0.7574% and 0.7574% | 3.6767% and 1.4233% and -0.8955% and -4.2309% and 0.8739% and -0.0879%
6 | COc1ccc(C(=O)N(CC(C)(C)CNC(=O)OC(C)(C)C)c2ccccc2)c(N2CCC(COc3cccc(C(CC(=O)O)C4CC4)c3)CC2)c1.O=C(O)C(F)(F)F (centres unmarked) [TUG-2467] | – | 6.78±0.02 | 124±9% | – | – | – | – | – | – | –

— paper PMC12254266, “Multicolored sequential resonance energy transfer for detection of simultaneous ligand binding at G protein-coupled receptors” (Nature Communications, 2025)
